Where a name gives a salt, the structure may show the parent alone. Read-outs that look alike come from different tables or passages of the source.
Assays:
[1] = test system: S. aureus 209P; test: Antibacterial spectra (MIC), method of the Society of Chemotherapy in Japan; assay type: cell-based; conditions: Staphylococcus aureus, Gram +, 10^6 cells/ml, read-out: Minimum inhibitory concentration for growth
[2] = test system: S. aureus Smith; test: as above; assay type: cell-based; conditions: Staphylococcus aureus, Gram +, 10^6 cells/ml, read-out: Minimum inhibitory concentration for growth
[3] = test system: S. epidermidis IID866; test: as above; assay type: cell-based; conditions: Staphylococcus epidermidis; S. epidermidis IID866, Gram +, 10^6 cells/ml; read-out: Minimum inhibitory concentration for growth
[4] = test system: S. pneumoniae type III; test: as above; assay type: cell-based; conditions: Streptococcus pneumoniae, Gram +, 10^6 cells/ml, read-out: Minimum inhibitory concentration for growth
[5] = test system: S. pneumoniae S-4288; test: as above; assay type: cell-based; conditions: Streptococcus pneumoniae, S4288; S. pneumoniae S-4288, Gram +, 10^6 cells/ml; read-out: Minimum inhibitory concentration for growth
[6] = test system: S. pneumoniae IID552; test: as above; assay type: cell-based; conditions: Streptococcus pneumoniae; S. pneumoniae IID552, Gram +, 10^6 cells/ml; read-out: Minimum inhibitory concentration for growth
[7] = test system: E. faecalis IID682; test: as above; assay type: cell-based; conditions: Enterococcus faecalis; E. faecalis IID682, Gram +, 10^6 cells/ml; read-out: Minimum inhibitory concentration for growth
[8] = test system: K. pneumoniae KY6445; test: as above; assay type: cell-based; conditions: Klebsiella pneumoniae; K. pneumoniae KY6445, Gram -, 10^6 cells/ml; read-out: Minimum inhibitory concentration for growth
[9] = test system: C. freundii IID976; test: as above; assay type: cell-based; conditions: Citrobacter freundii; C. freundii IID976, Gram -, 10^6 cells/ml; read-out: Minimum inhibitory concentration for growth
[10] = test system: P. vulgaris IFO3167; test: as above; assay type: cell-based; conditions: Proteus vulgaris; P. vulgaris IFO3167, Gram -, 10^6 cells/ml; read-out: Minimum inhibitory concentration for growth
[11] = test system: P. mirabilis IID994; test: as above; assay type: cell-based; conditions: Proteus mirabilis; P. mirabilis IID994, Gram -, 10^6 cells/ml; read-out: Minimum inhibitory concentration for growth
[12] = test system: S. enteritidis IID604; test: as above; assay type: cell-based; conditions: Salmonella enterica; S. enteritidis IID604, Gram -, 10^6 cells/ml; read-out: Minimum inhibitory concentration for growth
[13] = test system: P. aeruginosa V-1; test: as above; assay type: cell-based; conditions: Pseudomonas aeruginosa, V1; P. aeruginosa V-1, Gram -, 10^6 cells/ml; read-out: Minimum inhibitory concentration for growth
[14] = test system: A. anitratus IID876; test: as above; assay type: cell-based; conditions: Acinetobacter calcoaceticus; A. anitratus IID876, Gram -, 10^6 cells/ml; read-out: Minimum inhibitory concentration for growth
[15] = test system: C. perfringens KYA13123; test: microbe, parasite or virus in culture; assay type: cell-based; conditions: Clostridium perfringens, KYA13123, read-out: Minimum inhibitory concentration for growth
[16] = test system: E. coli ML 4707; test: Therapeutic effect on the systemic infection of mouse; assay type: in vivo, ICR mice; conditions: Escherichia coli, ML4707, po, 1 h, read-out: ED50 E. coli
Experimental: (§1) The infectious bacteria were injected intraperitoneally using five ICR mice per group. one hour later, 5 doses of drugs were administered once orally, respectively, and, from a curve of survival rate of mouse as a function of dose of drug, a dose (EDso) by which 50% of animals escape the death to heal was determined.

[17] = test system: S. aureus Smith; test: as above; assay type: in vivo, ICR mice; conditions: Staphylococcus aureus, po, 1 h, read-out: ED50 S. aureus
Experimental: as §1

[18] = test system: S. pyogenes S-8; test: Antibacterial spectra (MIC), method of the Society of Chemotherapy in Japan; assay type: cell-based; conditions: Streptococcus pyogenes, S8; S. pyogenes S-8, Gram +, 10^6 cells/ml; read-out: Minimum inhibitory concentration for growth
[19] = test system: E. coli NIHJ JC-2; test: as above; assay type: cell-based; conditions: Escherichia coli, NIHJJC2; E. coli NIHJ JC-2, Gram -, 10^6 cells/ml; read-out: Minimum inhibitory concentration for growth
[20] = test system: S. sonnei IID969; test: as above; assay type: cell-based; conditions: Shigella sonnei; S. sonnei IID969, Gram -, 10^6 cells/ml; read-out: Minimum inhibitory concentration for growth
Experimental: The antibacterial test was performed according to the method designated by Society of Chemotherapy in Japan.

[21] = test system: P. aeruginosa IFO12689; test: as above; assay type: cell-based; conditions: Pseudomonas aeruginosa; P. aeruginosa IFO12689, Gram -, 10^6 cells/ml; read-out: Minimum inhibitory concentration for growth
[22] = test system: P. aeruginosa IID1210; test: as above; assay type: cell-based; conditions: Pseudomonas aeruginosa; P. aeruginosa IID1210, Gram -, 10^6 cells/ml; read-out: Minimum inhibitory concentration for growth
[23] = test system: E. cloacae IID977; test: as above; assay type: cell-based; conditions: Enterobacter cloacae; E. cloacae IID977, Gram -, 10^6 cells/ml; read-out: Minimum inhibitory concentration for growth
[24] = test system: M. morganii IID602; test: as above; assay type: cell-based; conditions: Morganella morganii; M. morganii IID602, Gram -, 10^6 cells/ml; read-out: Minimum inhibitory concentration for growth
[25] = test system: S. marcescens IID618; test: as above; assay type: cell-based; conditions: Serratia marcescens; S. marcescens IID618, Gram -, 10^6 cells/ml; read-out: Minimum inhibitory concentration for growth
[26] = test system: P. maltophilia GIFU2491; test: as above; assay type: cell-based; conditions: Stenotrophomonas maltophilia; P. maltophilia GIFU2491, Gram -, 10^6 cells/ml; read-out: Minimum inhibitory concentration for growth
[27] = test system: B. thetaiotaomicron 0661; test: as above; assay type: cell-based; conditions: Bacteroides thetaiotaomicron; B. thetaiotaomicron 0661, Gram -, 10^6 cells/ml; read-out: Minimum inhibitory concentration for growth
[28] = E. coli ML 4707, 8.8x10^6 CFU/mouse intraperitoneally, drug once orally one hour later, dose at which 50% of ICR mice survive
[29] = S. aureus Smith, 4.8x10^6 CFU/mouse intraperitoneally, drug once orally one hour later, dose at which 50% of ICR mice survive

Compound | MIC [1] [µg/mL] | MIC [2] [µg/mL] | MIC [3] [µg/mL] | MIC [4] [µg/mL] | MIC [5] [µg/mL] | MIC [6] [µg/mL] | MIC [7] [µg/mL] | MIC [8] [µg/mL] | MIC [9] [µg/mL] | MIC [10] [µg/mL] | MIC [11] [µg/mL] | MIC [12] [µg/mL] | MIC [13] [µg/mL] | MIC [14] [µg/mL] | MIC [15] [µg/mL] | ED50 [16, 28] [mg/kg] | ED50 [17, 29] [mg/kg] | MIC [18] [µg/mL] | MIC [19] [µg/mL] | MIC [20] [µg/mL] | other results
COc1c(N2C[C@@H](N)[C@@H](C)C2)c(F)cc2c(=O)c(C(=O)O)cn(C3CC3)c12 [Example 34, 7-[3(S)amino-4(S)-methyl-1-pyrrolidinyl]-1-cyclopropyl-6-fluoro-1,4-dihydro-8-methoxy-4-oxo-3-quinolinecarboxyic acid hydrochloride] | 0.025 | 0.025 | 0.05 | 0.05 | 0.2 | 0.2 | 0.2 | 0.025 | 0.05 | 0.025 | 0.025 | 0.05 | 0.2 | 0.05 | 0.2 | 0.26 | 1.39 | – | – | – | –
COc1c(N2C[C@@H](C)[C@@H](N)C2)c(F)cc2c(=O)c(C(=O)O)cn(C3CC3)c12.Cl [Example 35, 7-[3(R)-amino-4(R)-methyl-1-pyrrolidinyl]-1-cyclopropyl-6-fluoro-1,4-dihydro-8-methoxy-4-oxo-3-quinolinecarboxylic acid hydrochloride] | 0.025 | 0.025 | 0.05 | – | 0.2 | 0.2 | 0.2 | 0.05 | – | 0.025 | 0.05 | – | – | 0.05 | 0.2 | 1.11 | 2 | 0.2 | 0.025 | 0.025 | MIC [21]: 1.56 µg/mL; MIC [22]: 1.56 µg/mL
COc1c(N2C[C@H](C)[C@@H](N)C2)c(F)cc2c(=O)c(C(=O)O)cn(C3CC3)c12 [Example 36, 7-[3(R)-amino-4(S)-methyl-I-pyrrolidinyl]-I-cyclopropyl-6-fluoro-1-4-dihydro-8-methoxy-4-oxo-3-quinolinecarboxylic acid hydrochloride] | 0.05 | – | – | 0.2 | – | – | – | 0.05 | – | 0.025 | – | – | – | – | – | 2.04 | 6.08 | 0.2 | 0.025 | 0.025 | MIC [23]: 0.2 µg/mL; MIC [24]: 0.2 µg/mL; MIC [25]: 0.2 µg/mL; MIC [21]: 1.56 µg/mL; MIC [22]: 1.56 µg/mL; MIC [26]: 0.2 µg/mL; MIC [27]: 1.56 µg/mL
O=C(O)c1cn(C2CC2)c2cc(N3CCNCC3)c(F)cc2c1=O [CPFX, Ciprofloxacin, reference compound] | – | – | – | – | – | – | – | – | – | – | – | – | – | – | – | – | – | – | – | – | ED50 [16]: 0.49 mg/kg; ED50 [17]: 20.3 mg/kg
COc1c(N2C[C@@H](C)[C@H](N)C2)c(F)cc2c(=O)c(C(=O)O)cn(C3CC3)c12 [Example 33, 7-[3(S)-amino-4(R)-methyl-l-pyrrolidinyl]-1-cyclopropyl-6-fluoro-1,4-dihydro-8-methoxy-4-oxo-3-quinolinecarboxylic acid hydrochloride] | 0.025 | 0.025 | 0.05 | 0.05 | – | – | – | 0.025 | 0.05 | – | 0.05 | 0.05 | 0.2 | 0.05 | – | 0.31 | 1.21 | 0.05 | – | – | MIC [23]: 0.05 µg/mL; MIC [27]: 0.2 µg/mL
